Laboratory results taken from patent US12696901B2, “Pesticidally active heterocyclic derivatives with sulfur containing substituents” (SYNGENTA CROP PROTECTION AG, priority 2020, dated 2026).

What was measured:
Assay type in all cases: in vivo
[1] = tested on: Diabrotica balteata (Corn Root Worm); experiment: Activity against Diabrotica balteata (corn root worm), corn seedlings on filter paper in cups; conditions: 120 h, application rate 3 ppm, L2 larva, 5 days after treatment, read-out: effect in at least one of the two categories (mortality or growth inhibition)
Procedure: Example B12: Activity Against Diabrotica Balteata (Corn Root Worm)
Three corn seedlings were placed on wetted filter paper in plastic cups, and 3 ml of diluted test solutions were pipetted onto them. The cups were infested with 10 L2 larva and checked for mortality and growth regulation 5 days after treatment.

[2] = tested on: Diabrotica balteata (Corn Root Worm); experiment: Activity against Diabrotica balteata (corn root worm), sprayed maize sprouts on agar; conditions: 96 h, application rate 200 ppm, L2 larvae, 4 days after infestation, read-out: effect in at least one of the two categories (mortality or growth inhibition)
Procedure: Example B2: Activity Against Diabrotica balteata (Corn Root Worm)
Maize sprouts placed onto an agar layer in 24-well microtiter plates were treated with aqueous test solutions prepared from 10,000 ppm DMSO stock solutions by spraying. After drying, the plates were infested with L2 larvae (6 to 10 per well). The samples were assessed for mortality and growth inhibition in comparison to untreated samples 4 days after infestation.

[3] = tested on: Plutella xylostella (Diamond Back Moth); experiment: Activity against Plutella xylostella (diamond back moth), treated artificial diet; conditions: 192 h, application rate 200 ppm, eggs, 8 days after infestation, read-out: effect in at least one of the two categories (mortality or growth inhibition)
Procedure: Example B5: Activity Against Plutella xylostella (Diamond Back Moth)
24-well microtiter plates with artificial diet were treated with aqueous test solutions prepared from 10,000 ppm DMSO stock solutions by pipetting. After drying, Plutella eggs were pipetted through a plastic stencil onto a gel blotting paper and the plate was closed with it. The samples were assessed for mortality and growth inhibition in comparison to untreated samples 8 days after infestation.

[4] = tested on: Euschistus heros (Neotropical Brown Stink Bug); experiment: Activity against Euschistus heros (neotropical brown stink bug), sprayed soybean leaves; conditions: 120 h, application rate 200 ppm, N2 nymphs, 5 days after infestation, read-out: effect in at least one of the two categories (mortality or growth inhibition)
Procedure: Example B3: Activity Against Euschistus heros (Neotropical Brown Stink Bug)
Soybean leaves on agar in 24-well microtiter plates were sprayed with aqueous test solutions prepared from 10,000 ppm DMSO stock solutions. After drying the leaves were infested with N2 nymphs. The samples were assessed for mortality and growth inhibition in comparison to untreated samples 5 days after infestation.

[5] = tested on: Frankliniella occidentalis (Western Flower Thrips); experiment: Activity against Frankliniella occidentalis (western flower thrips), sprayed sunflower leaf discs; conditions: foliar, 168 h, application rate 200 ppm, population of mixed ages, 7 days after infestation
Procedure: Example B4: Activity Against Frankliniella occidentalis (Western Flower Thrips)
(§1) Sunflower leaf discs were placed on agar in 24-well microtiter plates and sprayed with aqueous test solutions prepared from 10,000 ppm DMSO stock solutions. After drying the leaf discs were infested with a Frankliniella population of mixed ages. The samples were assessed for mortality 7 days after infestation.

[6] = tested on: Spodoptera littoralis (Egyptian Cotton Leaf Worm); experiment: Activity against Spodoptera littoralis (Egyptian cotton leaf worm), sprayed cotton leaf discs; conditions: foliar, 72 h, application rate 200 ppm, L1 larvae, 3 days after infestation
Procedure: Example B7: Activity Against Spodoptera littoralis (Egyptian Cotton Leaf Worm)
Cotton leaf discs were placed onto agar in 24-well microtiter plates and sprayed with aqueous test solutions prepared from 10,000 ppm DMSO stock solutions. After drying the leaf discs were infested with five L1 larvae. The samples were assessed for mortality, anti-feeding effect, and growth inhibition in comparison to untreated samples 3 days after infestation. Control of Spodoptera littoralis by a test sample is given when at least one of the categories mortality, anti-feedant effect, and growth inhibition is higher than the untreated sample.

[7] = tested on: Bemisia tabaci (Cotton White Fly); experiment: Activity against Bemisia tabaci (cotton white fly), sprayed cotton leaf discs; conditions: foliar, 144 h, application rate 200 ppm, adult white flies, 6 days after incubation
Procedure: Example B1: Activity Against Bemisia tabaci (Cotton White Fly)
Cotton leaf discs were placed on agar in 24-well microtiter plates and sprayed with aqueous test solutions prepared from 10,000 ppm DMSO stock solutions. After drying the leaf discs were infested with adult white flies. The samples were checked for mortality 6 days after incubation.

[8] = tested on: Carpocapsa (Cydia) Pomonella (Codling Moth); experiment: Activity against Carpocapsa (Cydia) pomonella (codling moth), sprayed diet cubes; conditions: 336 h, application rate 12.5 ppm, L1 larvae, 14 days after infestation, read-out: effect in at least one of the two categories (mortality or growth inhibition)
Procedure: Example B11: Activity Against Carpocapsa (Cydia) Pomonella (Codling Moth)
Diet cubes coated with paraffin were sprayed with diluted test solutions in an application chamber. After drying off the treated cubes (10 replicates) were infested with 1 L1 larvae. Samples were incubated at 26-27° C. and checked 14 days after infestation for mortality and growth inhibition. The following compounds gave an effect of at least 80% in at least one of the two categories (mortality or growth inhibition) at an application rate of 12.5 ppm: P1, P2, P3, P4, P5, P6, P10, P11, P12, P14, P15, P16, P17, P19, P20, P21, P22, P24, P27, P29, P30, P33, P34, P35.

[9] = tested on: Myzus persicae (Green Peach Aphid); experiment: Activity against Myzus persicae (green peach aphid), feeding/contact activity; conditions: 144 h, application rate 200 ppm, mixed ages, 6 days after infestation
Procedure: Example B6: Activity Against Myzus persicae (Green Peach Aphid) Feeding/Contact Activity
Sunflower leaf discs were placed onto agar in a 24-well microtiter plate and sprayed with aqueous test solutions prepared from 10,000 ppm DMSO stock solutions. After drying, the leaf discs were infested with an aphid population of mixed ages. The samples were assessed for mortality 6 days after infestation.

[10] = tested on: Tetranychus urticae (Two-Spotted Spider Mite); experiment: Activity against Tetranychus urticae (two-spotted spider mite), sprayed bean leaf discs; conditions: foliar, 192 h, application rate 200 ppm, mixed population (mobile stages), 8 days after infestation
Procedure: Example B9: Activity Against Tetranychus urticae (Two-Spotted Spider Mite)
as §1, with “Bean” for “Sunflower”, “discs” for “discs were placed”, “were” for “and”, “mite” for “Frankliniella”, “on mixed population (mobile stages) 8” for “7”

[11] = tested on: Chilo suppressalis (Striped Rice Stemborer); experiment: Activity against Chilo suppressalis (striped rice stemborer), treated artificial diet; conditions: 144 h, application rate 200 ppm, L2 larvae, 6 days after infestation
Procedure: Example B10: Activity Against Chilo suppressalis (Striped Rice Stemborer)
24-well microtiter plates with artificial diet were treated with aqueous test solutions prepared from 10,000 ppm DMSO stock solutions by pipetting. After drying, the plates were infested with L2 larvae (6-8 per well). The samples were assessed for mortality, anti-feeding effect, and growth inhibition in comparison to untreated samples 6 days after infestation. Control of Chilo suppressalis by a test sample is given when at least one of the categories mortality, anti-feedant effect, and growth inhibition is higher than the untreated sample.

CCS(=O)(=O)c1c(N2Cc3ncc(C(F)(F)F)cc3C2=O)nc2cc(C3(C#N)CC3)ccn12 [Compound P3, 1-[3-ethylsulfonyl-2-[5-oxo-3-(trifluoromethyl)-7H-pyrrolo[3,4-b]pyridin-6-yl]imidazo [1,2-a]pyridin-7-yl] cyclopropane-carbonitrile]
≥ 80%: percent effect (mortality or growth inhibition) at 3 ppm [1] | percent effect (mortality or growth inhibition) at 200 ppm [2] | percent effect (mortality or growth inhibition) at 200 ppm [3] | percent effect (mortality or growth inhibition) at 200 ppm [4] | mortality at 200 ppm [5] | percent control (mortality, anti-feedant effect or growth inhibition) at 200 ppm [6] | mortality at 200 ppm [7] | percent effect (mortality or growth inhibition) at 12.5 ppm [8] | mortality at 200 ppm [9]

CCS(=O)(=O)c1c(N2Cc3ccc(OC(F)(F)F)cc3C2=O)nc2cc(C3(C#N)CC3)ccn12 [Compound P5, 1-[3-ethylsulfonyl-2-[1-oxo-6-(trifluoromethoxy)isoindolin-2-yl]imidazo[1,2-a]pyridin-7-yl] cyclopropane-carbonitrile]
≥ 80%: percent effect (mortality or growth inhibition) at 3 ppm [1] | percent effect (mortality or growth inhibition) at 200 ppm [2] | percent effect (mortality or growth inhibition) at 200 ppm [3] | percent effect (mortality or growth inhibition) at 200 ppm [4] | mortality at 200 ppm [5] | percent control (mortality, anti-feedant effect or growth inhibition) at 200 ppm [6] | mortality at 200 ppm [7] | percent effect (mortality or growth inhibition) at 12.5 ppm [8] | mortality at 200 ppm [9]

CCS(=O)(=O)c1c(N2Cc3ccc(OC(F)(F)F)cc3C2=O)nc2ccc(C3(C#N)CC3)cn12 [Compound P14, 1-[3-ethylsulfonyl-2-[1-oxo-6-(trifluoromethoxy)isoindolin-2-yl]imidazo[1,2-a]pyridin-6-yl] cyclopropane-carbonitrile]
≥ 80%: percent effect (mortality or growth inhibition) at 3 ppm [1] | percent effect (mortality or growth inhibition) at 200 ppm [2] | percent effect (mortality or growth inhibition) at 200 ppm [3] | percent effect (mortality or growth inhibition) at 200 ppm [4] | mortality at 200 ppm [5] | percent control (mortality, anti-feedant effect or growth inhibition) at 200 ppm [6] | mortality at 200 ppm [7] | mortality at 200 ppm [10] | percent effect (mortality or growth inhibition) at 12.5 ppm [8] | mortality at 200 ppm [9]

CCS(=O)(=O)c1c(N2Cc3ncc(C(F)(F)F)cc3C2=O)nc2ccc(C3(C#N)CC3)cn12 [Compound P15, 1-[3-ethylsulfonyl-2-[5-oxo-3-(trifluoromethyl)-7H-pyrrolo[3,4-b]pyridin-6-yl]imidazo [1,2-a]pyridin-6-yl] cyclopropane-carbonitrile]
≥ 80%: percent effect (mortality or growth inhibition) at 3 ppm [1] | percent effect (mortality or growth inhibition) at 200 ppm [2] | percent effect (mortality or growth inhibition) at 200 ppm [3] | percent effect (mortality or growth inhibition) at 200 ppm [4] | mortality at 200 ppm [5] | percent control (mortality, anti-feedant effect or growth inhibition) at 200 ppm [6] | mortality at 200 ppm [7] | mortality at 200 ppm [10] | percent effect (mortality or growth inhibition) at 12.5 ppm [8] | mortality at 200 ppm [9]

CCS(=O)(=O)c1c(N2Cc3ccc(C(F)(F)F)cc3C2=O)nc2ccc(C3(C#N)CC3)cn12 [Compound P16, 1-[3-ethylsulfonyl-2-[1-oxo-6-(trifluoromethyl)isoindolin-2-yl]imidazo[1,2-a]pyridin-6-yl] cyclopropane-carbonitrile]
≥ 80%: percent effect (mortality or growth inhibition) at 3 ppm [1] | percent effect (mortality or growth inhibition) at 200 ppm [2] | percent effect (mortality or growth inhibition) at 200 ppm [3] | percent effect (mortality or growth inhibition) at 200 ppm [4] | percent control (mortality, anti-feedant effect or growth inhibition) at 200 ppm [6] | mortality at 200 ppm [7] | mortality at 200 ppm [10] | percent effect (mortality or growth inhibition) at 12.5 ppm [8] | mortality at 200 ppm [9]

CCS(=O)(=O)c1c(N2Cc3ncc(C(F)(F)F)cc3C2=O)nc2ccc(C3CC3)cn12 [Compound P27, 6-(6-cyclopropyl-3-ethylsulfonyl-imidazo [1,2-a]pyridin-2-yl)-3-(trifluoromethyl)-7H-pyrrolo[3,4-b]pyridin-5-one]
≥ 80%: percent effect (mortality or growth inhibition) at 3 ppm [1] | percent effect (mortality or growth inhibition) at 200 ppm [2] | percent effect (mortality or growth inhibition) at 200 ppm [3] | percent effect (mortality or growth inhibition) at 200 ppm [4] | mortality at 200 ppm [5] | percent control (mortality, anti-feedant effect or growth inhibition) at 200 ppm [6] | percent control (mortality, anti-feedant effect or growth inhibition) at 200 ppm [11] | percent effect (mortality or growth inhibition) at 12.5 ppm [8] | mortality at 200 ppm [9]

CCS(=O)(=O)c1c(N2Cc3ccc(S(=O)(=O)C(F)(F)F)cc3C2=O)nc2cc(OCC(F)(F)F)ccn12 [Compound P33, 2-[3-ethylsulfonyl-7-(2,2,2-trifluoroethoxy)imidazo[1,2-a]pyridin-2-yl]-6-(trifluoromethylsulfonyl)isoindolin-1-one]
≥ 80%: percent effect (mortality or growth inhibition) at 3 ppm [1] | percent effect (mortality or growth inhibition) at 200 ppm [2] | percent effect (mortality or growth inhibition) at 200 ppm [3] | percent effect (mortality or growth inhibition) at 200 ppm [4] | mortality at 200 ppm [5] | percent control (mortality, anti-feedant effect or growth inhibition) at 200 ppm [6] | percent control (mortality, anti-feedant effect or growth inhibition) at 200 ppm [11] | mortality at 200 ppm [7] | percent effect (mortality or growth inhibition) at 12.5 ppm [8] | mortality at 200 ppm [9]

CCS(=O)(=O)c1c(N2Cc3ccc(S(=O)(=O)C(F)(F)F)cc3C2=O)nc2cc(C(F)(F)F)ccn12 [Compound P37, 2-[3-ethylsulfonyl-7-(trifluoromethyl)imidazo[1,2-a]pyridin-2-yl]-6-(trifluoromethyl-sulfonyl) isoindolin-1-one]
≥ 80%: percent effect (mortality or growth inhibition) at 3 ppm [1] | percent effect (mortality or growth inhibition) at 200 ppm [2] | percent effect (mortality or growth inhibition) at 200 ppm [4] | mortality at 200 ppm [5] | percent control (mortality, anti-feedant effect or growth inhibition) at 200 ppm [6] | percent control (mortality, anti-feedant effect or growth inhibition) at 200 ppm [11] | mortality at 200 ppm [7] | mortality at 200 ppm [9]
